In US11952330B2, “Antibiotic ammonium compounds and methods for the treatment of bacterial infections” (priority 2019, dated 2024):

Experiments:
A. baumannii = assay: MIC by broth dilution, A. baumannii; format: cell-based; conditions: Acinetobacter baumannii; Mueller-Hinton broth, overnight 37° C.; Table 1; read-out: MIC (μg/mL) A. baumannii
Description: (§1) The antibacterial efficacy of the ammonium compounds was assessed. Minimum inhibitory concentrations (MICs) were determined by broth dilution method. Dilutions of each compound, ranging from 1 μg/mL to 256 μg/mL (final concentrations) were prepared in Mueller-Hinton broth. Compound dilutions were added to wells of a 96-well plate, with the concentration of the compound increasing 2-fold by row. Each well contained 5×10^5 CFU/ml of target bacterium in a total volume of 100 μl. Plates were incubated overnight at 37° C. The following day, plates were evaluated for a visual change in growth to determine the MIC. The concentration value corresponding to the first row that no longer had visible bacterial growth, as evaluated by turbidity in the wells, was recorded as the MIC. MIC values were representative of at least biological duplicates, each made up of technical triplicates. The antibacterial efficacy of ammonium compounds in the presence of human plasma was assessed. Minimum inhibitory concentrations (MICs) were determined by broth dilution method. Dilutions of each compound, ranging from 1 μg/mL to 256 μg/mL (final concentrations) were prepared in Mueller-Hinton broth. For the plasma containing samples, compound dilutions were made in Mueller-Hinton broth and supplemented with 5% (final %) human plasma (esterases). Compound dilutions were added to wells of a 96-well plate, with the concentration of the compound increasing 2-fold by row. Each well contained 5×10^5 CFU/mL of target bacterium in a total volume of 100 μL. Plates were incubated overnight at 37° C. The following day, plates were evaluated for a visual change in growth to determine the MIC. The concentration value corresponding to the first row that no longer had visible bacterial growth, as evaluated by turbidity in the wells, was recorded as the MIC. MIC values were representative of at least biological duplicates, each made up of technical triplicates.

S. aureus = assay: MIC by broth dilution, S. aureus; format: cell-based; conditions: Staphylococcus aureus; Mueller-Hinton broth, overnight 37° C.; Table 1; read-out: MIC (μg/mL) S. aureus
Description: as §1

Row | MIC (A. baumannii) [µg/mL] | MIC (S. aureus) [µg/mL] | SMILES
1 | > 30 | 3 to 30 | CCCCCCCCOc1ccccc1C(=O)Nc1ccc(C(=O)OCC[N+](CC)(CC)Cc2ccc([N+](=O)[O-])cc2)cc1.[Br-] [Compound 39, N,N-Diethyl-N-(4-nitrobenzyl)-2-((4-(2-(octyloxy)benzamido)benzoyl)oxy)ethan-1-aminium bromide]
2 | > 30 | > 30 | CCCCCCCCOc1ccccc1C(=O)Nc1ccc(C(=O)N(C)CC[N+](C)(CC)CC)cc1.[Br-] [Compound 55, N,N-Diethyl-N-methyl-2-(N-methyl-4-(2-(octyloxy)benzamido)benzamido)ethan-1-aminium bromide]
3 | > 30 | 3 to 30 | CCCCCCOc1ccccc1C(=O)Nc1ccc(S(=O)(=O)NCC[N+](CC)(CC)CCCCC)cc1.[Br-] [Compound 92, N,N-Diethyl-N-(2-((4-(2-(hexyloxy)benzamido)phenyl)sulfonamido)ethyl)pentan-1-aminium bromide]
4 | > 30 | 3 to 30 | CCCCCCCOc1ccccc1C(=O)Nc1ccc(C(=O)OCC[N+](C)(CC)CC)cc1.[Br-] [Compound 22, N,N-Diethyl-2-((4-(2-(heptyloxy)benzamido)benzoyl)oxy)-N-methylethan-1-aminium bromide]
5 | 3 to 30 | 3 to 30 | CCCCCCCCCOc1ccccc1C(=O)Nc1ccc(C(=O)OCC[N+](C)(CC)CC)cc1.[Br-] [Compound 23, N,N-Diethyl-N-methyl-2-((4-(2-(nonyloxy)benzamido)benzoyl)oxy)ethan-1-aminium bromide]
6 | 3 to 30 | 3 to 30 | CCCCCCCCOc1ccccc1C(=O)Nc1ccc(C(=O)OC2CC[N+](CC)(CCC)CC2)cc1.[Br-] (stereo not shown) [Compound 57, 1-Ethyl-4-((4-(2-(octyloxy)benzamido)benzoyl)oxy)-1-propylpiperidin-1-ium bromide]
7 | > 30 | 3 to 30 | CCCCCCOc1ccccc1C(=O)Nc1ccc(C(=O)OCC[N+](CC)(CC)CCC)cc1.[Br-] [Compound 66, N,N-Diethyl-N-(2-((4-(2-(hexyloxy)benzamido)benzoyl)oxy)ethyl)propan-1-aminium bromide]
8 | > 30 | 3 to 30 | CCCCCCCCOc1ccccc1C(=O)Nc1ccc(C(=O)OCCCC[N+](C)(C)C)cc1.[I-] [Compound 46, N,N,N-Trimethyl-4-((4-(2-(octyloxy)benzamido)benzoyl)oxy)butan-1-aminium iodide]
9 | 3 to 30 | < 3 | CCCCCCCCOc1ccccc1C(=O)Nc1ccc(C(=O)OCC[N+](CC)(CC)CCC(C)(C)C)cc1.[Br-] [Compound 47, N,N-Diethyl-3,3-dimethyl-N-(2-((4-(2-(octyloxy)benzamido)benzoyl)oxy)ethyl)-butan-1-aminium bromide]
10 | > 30 | 3 to 30 | CCCCCCOc1ccccc1C(=O)Nc1ccc(C(=O)OCC[N+](C)(CC)CC)cc1.[Br-] [Compound 21, N,N-Diethyl-2-((4-(2-(hexyloxy)benzamido)benzoyl)oxy)-N-methylethan-1-aminium bromide]
11 | 3 to 30 | 3 to 30 | CCCCCCOc1cc(F)ccc1C(=O)Nc1ccc(S(=O)(=O)NCC[N+](CC)(CC)CCCCC)cc1.[Br-] [Compound 94, N,N-Diethyl-N-(2-((4-(4-fluoro-2-(hexyloxy)benzamido)phenyl)sulfonamido)-ethyl)pentan-1-aminium bromide]
12 | > 30 | > 30 | CCCCCCCCOc1cccc(C(=O)Nc2ccc(C(=O)OCC[N+](C)(CC)CC)cc2)c1OCCCCCCCC.[Br-] [Compound 14, 2-((4-(2,3-Bis(octyloxy)benzamido)benzoyl)oxy)-N,N-diethyl-N-methylethan-1-aminium bromide]
13 | > 30 | 3 to 30 | CCCCCCCCCCCCCCOc1ccccc1C(=O)Nc1ccc(C(=O)OCC[N+](C)(CC)CC)cc1.[Br-] [Compound 28, N,N-Diethyl-N-methyl-2-((4-(2-(tetradecyloxy)benzamido)benzoyl)oxy)ethan-1-aminium bromide]
14 | > 30 | 3 to 30 | CCCCCCCOc1ccccc1C(=O)Nc1ccc(C(=O)NC2CC[N+](CC)(CCC)CC2)cc1.[Br-] (stereo not shown) [Compound 85, 1-Ethyl-4-(4-(2-(heptyloxy)benzamido)benzamido)-1-propylpiperidin-1-ium bromide]
15 | > 30 | > 30 | CCCCCCCCOc1ccc(C(=O)Nc2ccc(C(=O)OCC[N+](C)(CC)CC)cc2)cc1.[Br-] [Compound 31, N,N-Diethyl-N-methyl-2-((4-(4-(octyloxy)benzamido)benzoyl)oxy)ethan-1-aminium bromide]
16 | 3 to 30 | < 3 | CCCCCCCCOc1ccccc1C(=O)Nc1ccc(C(=O)OCC[N+](CC)(CC)CCCCC)cc1.[Br-] [Compound 35, N,N-Diethyl-N-(2-((4-(2-(octyloxy)benzamido)benzoyl)oxy)ethyl)pentan-1-aminium bromide]
17 | 3 to 30 | < 3 | CCCCCCCCOc1ccccc1C(=O)Nc1ccc(C(=O)OCC[N+](CC)(CC)CC2CCCCC2)cc1.[Br-] [Compound 62, N-(Cyclohexylmethyl)-N,N-diethyl-2-((4-(2-(octyloxy)benzamido)benzoyl)oxy)-ethan-1-aminium bromide]
18 | > 30 | < 3 | CCCCCCCCOc1ccccc1C(=O)Nc1ccc(C(=O)OCC[N+](CC)(CC)Cc2ccc(C(F)(F)F)cc2)cc1.[Br-] [Compound 41, N,N-Diethyl-2-((4-(2-(octyloxy)benzamido)benzoyl)oxy)-N-(4-(trifluoromethyl)-benzyl)ethan-1-aminium bromide]
19 | 3 to 30 | < 3 | CCCCCCCOc1ccccc1C(=O)Nc1ccc(C(=O)OCC[N+](CC)(CC)CCCCC)cc1.[Br-] [Compound 71, N,N-Diethyl-N-(2-((4-(2-(heptyloxy)benzamido)benzoyl)oxy)ethyl)pentan-1-aminium bromide]
20 | > 30 | 3 to 30 | CCCCCCCCOc1cccc(F)c1C(=O)Nc1ccc(C(=O)OCC[N+](C)(CC)CC)cc1.[Br-] [Compound 88, N,N-Diethyl-2-((4-(2-fluoro-6-(octyloxy)benzamido)benzoyl)oxy)-N-methylethan-1-aminium bromide]
21 | > 30 | > 30 | CCCCCOc1ccccc1C(=O)Nc1ccc(C(=O)OCC[N+](C)(CC)CC)cc1.[Br-] [Compound 20, N,N-Diethyl-N-methyl-2-((4-(2-(pentyloxy)benzamido)benzoyl)oxy)ethan-1-aminium bromide]
22 | > 30 | 3 to 30 | CC[N+](C)(CC)CCOC(=O)c1ccc(NC(=O)c2ccccc2OCCCCC(C)C)cc1.[Br-] [Compound 97, N,N-Diethyl-N-methyl-2-((4-(2-((5-methylhexyl)oxy)benzamido)benzoyl)oxy)-ethan-1-aminium bromide]
23 | > 30 | < 3 | CCCCCCCCCCCCCOc1ccccc1C(=O)Nc1ccc(C(=O)OCC[N+](C)(CC)CC)cc1.[Br-] [Compound 27, N,N-Diethyl-N-methyl-2-((4-(2-(tridecyloxy)benzamido)benzoyl)oxy)ethan-1-aminium bromide]
24 | 3 to 30 | < 3 | CCCCCCCOc1ccccc1C(=O)Nc1ccc(C(=O)OCC[N+](CC)(CC)CCCC)cc1.[Br-] [Compound 70, N,N-Diethyl-N-(2-((4-(2-(heptyloxy)benzamido)benzoyl)oxy)ethyl)butan-1-aminium bromide]
25 | > 30 | > 30 | CCCCCCCCOc1ccc(OCCCCCCCC)c(C(=O)Nc2ccc(C(=O)OCC[N+](C)(CC)CC)cc2)c1.[Br-] [Compound 16, 2-((4-(2,5-Bis(octyloxy)benzamido)benzoyl)oxy)-N,N-diethyl-N-methylethan-1-aminium bromide]
26 | 3 to 30 | < 3 | CCCCCCCCOc1ccccc1C(=O)Nc1ccc(C(=O)OCC[N+](CC)(CC)CC2CCCC2)cc1.[Br-] [Compound 61, N-(Cyclopentylmethyl)-N,N-diethyl-2-((4-(2-(octyloxy)benzamido)benzoyl)oxy)-ethan-1-aminium bromide]
27 | > 30 | 3 to 30 | CCCCCCCCOc1c(F)cccc1C(=O)Nc1ccc(C(=O)OCC[N+](C)(CC)CC)cc1.[Br-] [Compound 89, N,N-Diethyl-2-((4-(3-fluoro-2-(octyloxy)benzamido)benzoyl)oxy)-N-methylethan-1-aminium bromide]
28 | > 30 | 3 to 30 | CCCCCCCCCCCCOc1ccccc1C(=O)Nc1ccc(C(=O)OCC[N+](C)(CC)CC)cc1.[Br-] [Compound 26, 2-((4-(2-(Dodecyloxy)benzamido)benzoyl)oxy)-N,N-diethyl-N-methylethan-1-aminium bromide]
29 | > 30 | 3 to 30 | CCCCCCCCOc1ccccc1C(=O)Nc1ccc(C(=O)OCC[N+](CC)(CC)CC)cc1.[Br-] [Compound 29, N,N,N-Triethyl-2-((4-(2-(octyloxy)benzamido)benzoyl)oxy)ethan-1-aminium bromide]
